# Measurements reported in patent publication EP4588470A1, “PHARMACEUTICAL COMPOSITION COMPRISING CURCUMIN AND THE PREPARATION THEREOF” (priority 2024, dated 2025).
# What was measured:
# [1] = test system: human circulating tumor cells; assay: drug sensitivity testing (CTC assay) on circulating tumor cells cultivated from patient blood; format: cell-based
# Source text: Determination of the effect of a pharmaceutical composition according to the present invention, on human circulating tumor cells in blood of nine patients suffering from different types of carcinoma as given in the following Table IV. The composition of the pharmaceutical composition is the same as used in Example 4.
# The cells from the collected blood were cultivated in a usual manner with an agent. The agent was either the pharmaceutical composition according to the present invention, or Resveratrol-ACTIF®, which is a combination preparation comprising resveratrol and at least one gingerol, that were added to the cell culture in a concentration of either 50% 100% and 200%.
# The same EDTA blood sample used for the verification of the CTC burden was used for drug sensitivity testing.
# After enrichment of mononuclear cells by density gradient centrifugation, CD45 depletion and erythrolysis the remaining cells were suspended in cell culture medium and incubated for 4 days with and without the tested compounds. Compounds were tested at three tissue culture doses (TCD), namely 50%, 100% and 200%.. […]
# The same experiment was performed with human circulating tumor cells, prepared from a tumor patient by using Resveratrol-ACTIF® and the pharmaceutical composition according to the present invention. […] The results vary from patient to patient and therefore have to be determined individually. […]
# [2] = in buffer at pH 7; cited from earlier work
# [3] = several animal studies; cited from earlier work
smiles,measurement,setting,value
CCC(=O)C(CC(C)N(C)C)(c1ccccc1)c1ccccc1 (stereo not shown) [Methadon],antitumoral capacity among the tested chemotherapeutics,[1],highest antitumoral capacity
N.N.O=C([O-])C1(C(=O)[O-])CCC1.[Pt+2] [Carboplatin],response of tumor cell-inhibition,"[1]; patient 7, Figure 8, already with the 50% TCD (7,9 µg/ml)",maximal response has been reached
"COc1cc(C=CC(=O)CC(=O)C=Cc2ccc(O)c(OC)c2)ccc1O [curcumin, 1,7-bis(4-hydroxy-3-methoxyphenyl)-1,6-heptadiene-3,5-dione]",solubility in aqueous solution,[2],less than 0.03 M
same,oral curcumin excreted in the faeces,[3],90%
